Consider 20 molecules from PubChem BioAssay (NCI).

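Interpolation was linear, between the two tested concentrations surrounding the appropriate level; five concentrations were tested over 48 hours in 96-well plates. GI50 is the concentration that inhibits growth by half. Definition used: TGI = concentration required for complete inhibition of growth.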 Bounds are passed on as bounds.

Assay in all cases: NCI anticancer screen, dose series, 48 h
Test [1] concerns HT29 colon.
The test system of test [2] is UACC-257 melanoma.
Test [3] relates to SN12C renal.
For test [4], the system named is SK-OV-3 ovarian.
The subject of test [5] is ACHN renal.
Test [6] concerns OVCAR-3 ovarian.
The subject of test [7] is MOLT-4 leukemia.
In test [8] the test system is K-562 leukemia.
The subject of test [9] is M14 melanoma.
In test [10] the test system is MALME-3M melanoma.

In the case of `CCCNC1=C2CC(C)CC(OC)[C@@H](O)[C@H](C)/C=C(\C)C(OC(N)=O)C(OC)/C=C\C=C(/C)C(=O)NC(=CC1=O)C2=O` (some centres not stated), the TGI in [1] was 10.9 µM; in test [2], 36.4 µM; in [3], 28.7 µM; in [4], > 100 µM; in test [5] it was 91.4 µM; in test [6], 28.8 µM. Moreover, the values for the TGI in test [7] and in test [8] were 13.5 µM and > 100 µM, respectively. Also, the GI50 in test [2] was 0.318 µM; in test [3], 0.235 µM; in test [4], 0.0747 µM; in test [6], 0.613 µM; in test [7], 0.492 µM.
With `O=C(O)CN(CC(=O)O)C1CCCCC1N(CC(=O)O)CC(=O)NCCN=C=S` (configuration not stated), the TGI in test [1], in [2], in test [3], in [4], in test [5] and in test [9] was > 100 µM throughout. Moreover, the TGI in test [10], in test [6], in test [7] and in test [8] was > 100 µM in each case.
For the molecule `CNC(=O)C(C)C1CCC2(C)C=CC(=O)C(C)=C2C1O` (configuration not stated), the TGI in test [1], in test [2], in [3], in [4], in test [6] and in test [7] was > 100 µM each time. The TGI in [8] is > 100 µM.
Regarding `O=c1[nH][nH]c(=O)n1Cc1ccccc1Cn1c(=O)[nH][nH]c1=O`, the TGI in test [1], in test [2], in test [3], in test [4], in test [5] and in test [9] was > 100 µM in each case. In addition, the TGI in test [10], in [6], in test [7] and in [8] was > 100 µM throughout.
Consider `CC(N)Cc1ccc(C(=O)Cl)cc1` (configuration not stated), for which the TGI in test [1], in test [2], in [3], in [4], in test [5] and in test [9] was > 100 µM in each case. In addition, the TGI in [10], in [6], in test [7] and in test [8] was > 100 µM throughout.
On to `O=C1C(=Cc2ccc(O)cc2)N=C(c2ccccc2)N1n1c(-c2ccccc2)nc2ccccc2c1=O`, for which the TGI in [1], in test [2], in [4], in test [9], in [10] and in test [7] was > 100 µM in each case.
In the case of `CC(=O)O[C@H]1C(=O)[C@]2(C)[C@@H](OC(=O)OCCC(O)CO)C[C@H]3OC[C@@]3(OC(C)=O)[C@H]2[C@H](OC(=O)c2ccccc2)[C@]2(O)C[C@H](OC(=O)[C@H](O)[C@@H](NC(=O)c3ccccc3)c3ccccc3)C(C)=C1C2(C)C` (some centres not stated), the TGI in test [1] was 0.526 µM; in [2], 21.4 µM; in [3], 19.8 µM; in test [5], > 100 µM; in [9], 7.16 µM; in test [10] it was 16.3 µM. Further, the TGI in [6] is 0.0932 µM; in [7], 12.7 µM; in [8], > 100 µM.
For `C=C(C1=CC(=O)C(C)(C)O1)[C@@H]1CC=C([C@@H]2CC[C@H]3[C@@]2(C)CC[C@H]2C(C)(C)C(=O)[C@H](O)C[C@]32C)[C@H](O)O1`, the TGI turned out to be 3.48 µM in [1]; 4.52 µM in [2]; 5.18 µM in [3]; 27.9 µM in [4]; 3.04 µM in [5]; 3.08 µM in test [9]. In addition, the TGI in test [10] is 5.27 µM; in test [6] it was 2.4 µM; in [7], 3.96 µM; in test [8], 8.01 µM.
As for `CCCCCCCCCCCOc1ccc(C(=O)C(=O)c2ccc(OCCCCCCCCCCC)c(OCCCCCCCCCCC)c2)cc1OCCCCCCCCCCC`, the TGI in test [1], in test [2], in [3], in test [4], in test [5] and in [9] was > 100 µM each time. Besides, the TGI in [10], in test [6], in [7] and in test [8] was > 100 µM throughout.
Consider `Cc1cn(C2CC(n3cc(Cn4cc(I)c(=O)[nH]c4=O)nn3)C(CO)O2)c(=O)[nH]c1=O` (configuration not stated), for which the TGI in [2], in test [3], in test [4], in [5], in test [9] and in test [6] was > 100 µM throughout. In addition, the TGI in [7] is > 100 µM.
With `FC(F)(F)c1cc(Cl)cnc1N/N=C(/c1ccccc1)c1ccccn1`, the TGI in [1] is 20.5 µM; in test [2], 16.5 µM; in test [3], > 100 µM; in [4], 9.9 µM; in test [5], 11.8 µM; in [9], 5.04 µM. Further, the TGI in test [6] turned out to be 12.7 µM; in [7] it was 8.82 µM; in [8], 49.9 µM.
Turning to `O=S1(=O)NC(=NCc2c[nH]c3ccccc23)N(c2ccccc2)c2ccncc21`, the TGI in [1], in test [2], in test [3], in test [4], in [5] and in test [9] was > 100 µM throughout. Moreover, the TGI in test [10], in test [6], in test [7] and in test [8] was > 100 µM in each case.
On to `CC1=CC2C(O1)C1C(=O)C=CC(=O)C1=CC2[N+](=O)[O-]` (configuration not stated), for which the TGI in [1] is 45.7 µM; in [2], 33.7 µM; in [3], 39.6 µM; in [4], > 100 µM; in [5], 12.8 µM; in test [9], 29.4 µM. Further, the figures for the TGI in test [6], in [7] and in test [8] were 30.7 µM, > 24.3 µM and > 100 µM, respectively.
Turning to `COc1cc2c(cc1OC)C(c1ccccc1CCCCl)=NCC2`, the TGI in test [1], in [2], in [3], in [4], in [5] and in test [9] was > 100 µM in each case. Moreover, the TGI in [6], in test [7] and in test [8] was > 100 µM in each case.
For the molecule `COC(=O)[C@H](Cc1c[nH]c2ccccc12)NP(=O)(O)OCC1C=CC(n2cc(C)c(=O)[nH]c2=O)O1` (some centres not stated), the TGI in [1], in [3], in test [6], in test [7] and in test [8] was > 100 µM each time.
Take `CC(C)CCCCCCCCCCCCC(=O)NCC(=O)NC1C(C)OC(Nc2ncnc3c2ncn3C)C(O)C1O` (configuration not stated): the TGI in [1] is > 100 µM; in test [2], > 100 µM; in test [3], > 100 µM; in test [4], > 94.6 µM; in [10], > 100 µM; in test [6], > 100 µM. The TGI in test [7] and in test [8] was > 100 µM throughout.
Take `C[n+]1c2ccccc2c(/C=N\NS(=O)(=O)c2ccc(O)c(C(=O)O)c2)c2ccccc21`: the TGI in test [1], in test [3], in test [4], in test [5], in test [9] and in test [10] was > 100 µM in each case. In addition, the TGI in test [6] is > 100 µM; in test [7] it was 62 µM; in test [8] it was > 100 µM.
As for `COc1cc(/C=C2\S/C(=N/Nc3nc(-c4ccc(Br)cc4)cs3)NC2=O)cc(OC)c1OC`, the TGI was 32.5 µM in [1]; 44.9 µM in test [2]; > 100 µM in [3]; 34.7 µM in test [4]; 25.4 µM in [5]; 41.8 µM in test [9]. Besides, the TGI in test [6] came out at 30.3 µM; in [7] it was 9.51 µM.
For the molecule `Oc1cc2c3c(c1)c1cc4c(cc1c[n+]3CC2)OCO4`, the TGI is > 42.2 µM in test [1]; > 57.4 µM in [2]; 5.71 µM in test [3]; > 100 µM in test [4]; > 100 µM in test [5]; > 100 µM in test [9]. The TGI in test [10] was 7.85 µM; in [6], > 50.9 µM; in [8], > 100 µM.
On to `Cc1cn(C2CC(N(O)C(N)=O)C(CO)O2)c(=O)[nH]c1=O` (configuration not stated), for which the TGI in [1], in test [3], in test [4], in test [5], in test [9] and in [10] was > 100 µM in each case. Moreover, the TGI in test [6], in test [7] and in [8] was > 100 µM throughout.
